From ChEMBL document CHEMBL4507293 (2021)

Columns and labels:
[1] = target: Activin receptor type-2B (Homo sapiens) (UniProt Q13705); conditions: Compound concentration 100.0 nM
[2] = target: Atypical kinase COQ8B, mitochondrial (Homo sapiens) (UniProt Q96D53); conditions: Compound concentration 100.0 nM
[3] = target: Tyrosine-protein kinase receptor UFO (Homo sapiens) (UniProt P30530); conditions: Compound concentration 100.0 nM
[4] = target: Calcium/calmodulin-dependent protein kinase type II subunit delta (Homo sapiens) (UniProt Q13557); conditions: Compound concentration 100.0 nM
[5] = target: Cyclin-dependent kinase 2 (Homo sapiens) (UniProt P24941); conditions: Compound concentration 100.0 nM
[6] = target: Dual specificity protein kinase CLK1 (Homo sapiens) (UniProt P49759); conditions: Compound concentration 100.0 nM
[7] = target: Casein kinase I isoform gamma-3 (Homo sapiens) (UniProt Q9Y6M4); conditions: Compound concentration 100.0 nM
[8] = target: Megakaryocyte-associated tyrosine-protein kinase (Homo sapiens) (UniProt P42679); conditions: Compound concentration 100.0 nM
[9] = target: Serine/threonine-protein kinase 17A (Homo sapiens) (UniProt Q9UEE5); conditions: Compound concentration 100.0 nM
[10] = tested on: Epidermal growth factor receptor (Homo sapiens), P00533 [L858R]; conditions: Compound concentration 100.0 nM
[11] = tested on: Epidermal growth factor receptor (Homo sapiens), P00533 [L858R,T790M]; conditions: Compound concentration 100.0 nM
[12] = target: Ephrin type-B receptor 4 (Homo sapiens) (UniProt P54760); conditions: Compound concentration 100.0 nM
[13] = target: Focal adhesion kinase 1 (Homo sapiens) (UniProt Q05397); conditions: Compound concentration 100.0 nM
[14] = target: Fibroblast growth factor receptor 2 (Homo sapiens) (UniProt P21802); conditions: Compound concentration 100.0 nM
[15] = target: Fibroblast growth factor receptor 3 (Homo sapiens) (UniProt P22607); conditions: Compound concentration 100.0 nM
[16] = tested on: Receptor-type tyrosine-protein kinase FLT3 (Homo sapiens), P36888 [D835V]; conditions: Compound concentration 100.0 nM
[17] = target: Receptor-type tyrosine-protein kinase FLT3 (Homo sapiens) (UniProt P36888); conditions: Compound concentration 100.0 nM
[18] = target: Inhibitor of nuclear factor kappa-B kinase subunit beta (Homo sapiens) (UniProt O14920); conditions: Compound concentration 100.0 nM
[19] = target: Tyrosine-protein kinase JAK1 (Homo sapiens) (UniProt P23458); conditions: Compound concentration 100.0 nM
[20] = target: Mitogen-activated protein kinase 9 (Homo sapiens) (UniProt P45984); conditions: Compound concentration 100.0 nM
[21] = target: LIM domain kinase 1 (Homo sapiens) (UniProt P53667); conditions: Compound concentration 100.0 nM
[22] = target: Maternal embryonic leucine zipper kinase (Homo sapiens) (UniProt Q14680); conditions: Compound concentration 100.0 nM
[23] = tested on: Hepatocyte growth factor receptor (Homo sapiens), P08581 [Y1235D]; conditions: Compound concentration 100.0 nM
[24] = target: Serine/threonine-protein kinase 4 (Homo sapiens) (UniProt Q13043); conditions: Compound concentration 100.0 nM
[25] = target: Serine/threonine-protein kinase PAK 1 (Homo sapiens) (UniProt Q13153); conditions: Compound concentration 100.0 nM
[26] = target: Cyclin-dependent kinase 18 (Homo sapiens) (UniProt Q07002); conditions: Compound concentration 100.0 nM
[27] = target: Phosphatidylinositol 3-kinase C2 domain-containing subunit gamma (Homo sapiens) (UniProt O75747); conditions: Compound concentration 100.0 nM
[28] = tested on: Phosphatidylinositol 4,5-bisphosphate 3-kinase catalytic subunit alpha isoform (Homo sapiens), P42336 [C420R]; conditions: Compound concentration 100.0 nM
[29] = tested on: Phosphatidylinositol 4,5-bisphosphate 3-kinase catalytic subunit alpha isoform (Homo sapiens), P42336 [H1047Y]; conditions: Compound concentration 100.0 nM
[30] = tested on: Phosphatidylinositol 4,5-bisphosphate 3-kinase catalytic subunit alpha isoform (Homo sapiens), P42336 [Q546K]; conditions: Compound concentration 100.0 nM
[31] = target: Serine/threonine-protein kinase PLK4 (Homo sapiens) (UniProt O00444); conditions: Compound concentration 100.0 nM
[32] = target: Interferon-induced, double-stranded RNA-activated protein kinase (Homo sapiens) (UniProt P19525); conditions: Compound concentration 100.0 nM
[33] = target: Ribosomal protein S6 kinase alpha-5 (Homo sapiens) (UniProt O75582); conditions: Compound concentration 100.0 nM
[34] = target: Ribosomal protein S6 kinase alpha-1 (Homo sapiens) (UniProt Q15418); conditions: Compound concentration 100.0 nM
[35] = target: Ribosomal protein S6 kinase alpha-6 (Homo sapiens) (UniProt Q9UK32); conditions: Compound concentration 100.0 nM
[36] = target: SNF-related serine/threonine-protein kinase (Homo sapiens) (UniProt Q9NRH2); conditions: Compound concentration 100.0 nM
[37] = target: SRSF protein kinase 3 (Homo sapiens) (UniProt Q9UPE1); conditions: Compound concentration 100.0 nM
[38] = target: Serine/threonine-protein kinase TAO3 (Homo sapiens) (UniProt Q9H2K8); conditions: Compound concentration 100.0 nM
[39] = target: Serine/threonine-protein kinase ULK2 (Homo sapiens) (UniProt Q8IYT8); conditions: Compound concentration 100.0 nM
[40] = target: Serine/threonine-protein kinase WNK2 (Homo sapiens) (UniProt Q9Y3S1); conditions: Compound concentration 100.0 nM
[41] = target: Serine/threonine-protein kinase 32B (Homo sapiens) (UniProt Q9NY57); conditions: Compound concentration 100.0 nM
[42] = target: Serine/threonine-protein kinase 25 (Homo sapiens) (UniProt O00506); conditions: Compound concentration 100.0 nM
[43] = target: 5-hydroxytryptamine receptor 1E (Homo sapiens) (UniProt P28566); conditions: Compound concentration 10.0 uM
[44] = target: D(1B) dopamine receptor (Homo sapiens) (UniProt P21918); conditions: Compound concentration 10.0 uM
[45] = target: Histamine H3 receptor (Homo sapiens) (UniProt Q9Y5N1); conditions: Compound concentration 10.0 uM
Histamine H3 receptor (Homo sapiens), sequence (Q9Y5N1 whole entry): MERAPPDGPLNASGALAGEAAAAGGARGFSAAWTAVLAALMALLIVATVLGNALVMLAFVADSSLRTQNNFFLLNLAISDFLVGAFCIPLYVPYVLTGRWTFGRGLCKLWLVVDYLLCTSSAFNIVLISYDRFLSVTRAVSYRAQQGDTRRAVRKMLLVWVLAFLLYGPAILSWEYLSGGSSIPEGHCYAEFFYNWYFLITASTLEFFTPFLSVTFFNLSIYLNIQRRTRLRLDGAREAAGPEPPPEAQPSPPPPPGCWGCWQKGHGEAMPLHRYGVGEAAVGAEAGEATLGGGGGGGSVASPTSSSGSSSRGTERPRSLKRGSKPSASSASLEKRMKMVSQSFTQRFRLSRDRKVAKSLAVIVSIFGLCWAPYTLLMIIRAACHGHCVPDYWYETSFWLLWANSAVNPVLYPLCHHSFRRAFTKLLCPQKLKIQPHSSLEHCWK

Atypical kinase COQ8B, mitochondrial (Homo sapiens), sequence (Q96D53 whole entry): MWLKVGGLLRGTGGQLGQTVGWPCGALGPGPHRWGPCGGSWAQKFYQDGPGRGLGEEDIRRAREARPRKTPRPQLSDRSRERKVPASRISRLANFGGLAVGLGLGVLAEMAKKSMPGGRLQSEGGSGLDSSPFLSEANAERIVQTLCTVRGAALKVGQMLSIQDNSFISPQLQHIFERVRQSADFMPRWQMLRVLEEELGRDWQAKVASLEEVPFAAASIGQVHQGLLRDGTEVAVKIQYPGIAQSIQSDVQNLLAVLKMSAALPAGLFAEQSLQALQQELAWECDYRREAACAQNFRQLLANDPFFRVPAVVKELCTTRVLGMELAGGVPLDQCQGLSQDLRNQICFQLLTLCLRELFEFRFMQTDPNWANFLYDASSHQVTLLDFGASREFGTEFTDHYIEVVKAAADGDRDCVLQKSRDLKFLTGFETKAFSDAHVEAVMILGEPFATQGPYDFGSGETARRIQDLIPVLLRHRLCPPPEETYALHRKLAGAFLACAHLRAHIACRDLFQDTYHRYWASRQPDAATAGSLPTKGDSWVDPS
D(1B) dopamine receptor (Homo sapiens), sequence (P21918 whole entry): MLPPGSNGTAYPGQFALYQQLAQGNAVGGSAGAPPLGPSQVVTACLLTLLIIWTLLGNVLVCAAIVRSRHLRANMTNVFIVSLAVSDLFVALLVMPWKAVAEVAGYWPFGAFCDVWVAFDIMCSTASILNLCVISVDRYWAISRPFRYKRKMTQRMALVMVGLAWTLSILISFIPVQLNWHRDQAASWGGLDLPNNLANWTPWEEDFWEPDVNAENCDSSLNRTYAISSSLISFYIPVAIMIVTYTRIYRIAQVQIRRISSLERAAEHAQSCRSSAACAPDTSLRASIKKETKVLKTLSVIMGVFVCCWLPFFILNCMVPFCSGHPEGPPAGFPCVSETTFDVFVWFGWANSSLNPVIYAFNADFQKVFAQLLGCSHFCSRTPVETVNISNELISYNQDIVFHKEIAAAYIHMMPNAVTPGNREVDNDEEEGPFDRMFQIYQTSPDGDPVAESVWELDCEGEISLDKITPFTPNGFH
Serine/threonine-protein kinase TAO3 (Homo sapiens), sequence (Q9H2K8 whole entry): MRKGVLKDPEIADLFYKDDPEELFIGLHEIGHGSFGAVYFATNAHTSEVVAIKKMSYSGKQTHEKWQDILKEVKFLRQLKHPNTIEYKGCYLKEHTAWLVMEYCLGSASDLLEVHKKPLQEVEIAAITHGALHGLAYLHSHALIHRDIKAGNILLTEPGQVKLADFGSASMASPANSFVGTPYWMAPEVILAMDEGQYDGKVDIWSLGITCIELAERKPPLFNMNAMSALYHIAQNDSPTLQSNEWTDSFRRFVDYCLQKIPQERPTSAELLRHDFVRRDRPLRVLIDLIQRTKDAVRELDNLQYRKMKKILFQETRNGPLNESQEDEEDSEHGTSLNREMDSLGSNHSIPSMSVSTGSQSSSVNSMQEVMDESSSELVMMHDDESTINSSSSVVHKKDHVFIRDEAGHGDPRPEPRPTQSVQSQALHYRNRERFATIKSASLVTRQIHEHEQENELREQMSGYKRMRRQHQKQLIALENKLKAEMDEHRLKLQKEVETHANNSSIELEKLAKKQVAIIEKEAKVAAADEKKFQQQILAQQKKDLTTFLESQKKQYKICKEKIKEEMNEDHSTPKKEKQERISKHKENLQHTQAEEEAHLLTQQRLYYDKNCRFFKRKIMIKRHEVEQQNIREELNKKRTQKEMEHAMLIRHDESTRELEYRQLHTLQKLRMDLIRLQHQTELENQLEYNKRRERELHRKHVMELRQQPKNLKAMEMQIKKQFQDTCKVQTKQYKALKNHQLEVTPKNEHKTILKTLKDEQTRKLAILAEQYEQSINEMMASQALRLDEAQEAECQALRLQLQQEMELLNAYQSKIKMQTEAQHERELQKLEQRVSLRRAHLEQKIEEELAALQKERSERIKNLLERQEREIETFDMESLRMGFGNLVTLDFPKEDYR
Ribosomal protein S6 kinase alpha-6 (Homo sapiens), sequence (Q9UK32 whole entry): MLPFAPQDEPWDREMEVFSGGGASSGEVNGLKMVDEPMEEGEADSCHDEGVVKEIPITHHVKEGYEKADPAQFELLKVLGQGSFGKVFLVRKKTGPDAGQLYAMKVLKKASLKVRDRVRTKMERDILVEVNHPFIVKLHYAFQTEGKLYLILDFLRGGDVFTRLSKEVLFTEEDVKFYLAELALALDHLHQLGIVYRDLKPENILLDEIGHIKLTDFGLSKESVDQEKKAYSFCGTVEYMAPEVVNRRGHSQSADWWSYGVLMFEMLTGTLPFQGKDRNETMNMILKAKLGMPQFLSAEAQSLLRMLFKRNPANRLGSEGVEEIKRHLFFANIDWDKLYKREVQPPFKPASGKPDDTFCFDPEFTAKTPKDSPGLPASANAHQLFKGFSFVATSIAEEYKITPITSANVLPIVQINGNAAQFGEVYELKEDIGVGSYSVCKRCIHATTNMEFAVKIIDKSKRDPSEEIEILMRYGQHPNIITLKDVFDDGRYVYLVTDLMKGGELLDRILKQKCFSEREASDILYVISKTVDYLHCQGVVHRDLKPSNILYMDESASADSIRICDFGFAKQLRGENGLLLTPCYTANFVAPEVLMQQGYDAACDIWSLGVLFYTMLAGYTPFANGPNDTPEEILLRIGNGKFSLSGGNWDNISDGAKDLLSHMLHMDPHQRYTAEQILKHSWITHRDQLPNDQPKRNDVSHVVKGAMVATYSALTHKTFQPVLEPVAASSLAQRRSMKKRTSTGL
Ephrin type-B receptor 4 (Homo sapiens), sequence (P54760 whole entry): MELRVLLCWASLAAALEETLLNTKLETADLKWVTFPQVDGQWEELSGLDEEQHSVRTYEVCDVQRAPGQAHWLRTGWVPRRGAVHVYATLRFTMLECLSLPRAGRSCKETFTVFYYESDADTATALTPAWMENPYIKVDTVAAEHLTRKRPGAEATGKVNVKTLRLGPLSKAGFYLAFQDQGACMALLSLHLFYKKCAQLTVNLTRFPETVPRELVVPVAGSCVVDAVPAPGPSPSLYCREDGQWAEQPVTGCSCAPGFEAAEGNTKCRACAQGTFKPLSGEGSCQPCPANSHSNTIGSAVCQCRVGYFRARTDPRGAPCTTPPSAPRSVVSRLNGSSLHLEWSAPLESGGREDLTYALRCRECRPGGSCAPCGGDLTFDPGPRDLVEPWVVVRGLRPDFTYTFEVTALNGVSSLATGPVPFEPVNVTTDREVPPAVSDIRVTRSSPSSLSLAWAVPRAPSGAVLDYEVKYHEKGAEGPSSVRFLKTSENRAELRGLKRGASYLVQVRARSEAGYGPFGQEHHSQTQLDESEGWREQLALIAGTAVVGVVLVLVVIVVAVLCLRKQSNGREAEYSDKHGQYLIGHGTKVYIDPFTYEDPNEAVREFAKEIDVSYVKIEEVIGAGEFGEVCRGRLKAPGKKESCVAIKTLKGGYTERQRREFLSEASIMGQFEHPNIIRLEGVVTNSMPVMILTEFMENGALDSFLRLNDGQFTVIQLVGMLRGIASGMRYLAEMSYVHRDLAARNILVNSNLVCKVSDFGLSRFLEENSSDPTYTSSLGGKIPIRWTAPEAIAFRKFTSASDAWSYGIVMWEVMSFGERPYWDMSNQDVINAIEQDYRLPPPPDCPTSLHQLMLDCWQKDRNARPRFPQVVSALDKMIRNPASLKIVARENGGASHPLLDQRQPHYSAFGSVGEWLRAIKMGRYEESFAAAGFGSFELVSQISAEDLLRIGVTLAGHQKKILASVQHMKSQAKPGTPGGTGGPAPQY
Serine/threonine-protein kinase 32B (Homo sapiens), sequence (Q9NY57 whole entry): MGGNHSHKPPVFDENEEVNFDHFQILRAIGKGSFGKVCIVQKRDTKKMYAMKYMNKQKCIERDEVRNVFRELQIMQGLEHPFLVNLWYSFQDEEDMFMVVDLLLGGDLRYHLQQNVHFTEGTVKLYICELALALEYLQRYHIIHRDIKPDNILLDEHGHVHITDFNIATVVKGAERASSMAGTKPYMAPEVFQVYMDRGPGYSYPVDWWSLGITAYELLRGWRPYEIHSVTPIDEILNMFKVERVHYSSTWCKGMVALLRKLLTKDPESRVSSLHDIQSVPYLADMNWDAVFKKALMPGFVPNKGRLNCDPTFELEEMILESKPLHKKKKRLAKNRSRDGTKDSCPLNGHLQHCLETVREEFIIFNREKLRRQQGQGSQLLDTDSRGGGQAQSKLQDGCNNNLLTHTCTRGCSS
Activin receptor type-2B (Homo sapiens), sequence (Q13705 whole entry): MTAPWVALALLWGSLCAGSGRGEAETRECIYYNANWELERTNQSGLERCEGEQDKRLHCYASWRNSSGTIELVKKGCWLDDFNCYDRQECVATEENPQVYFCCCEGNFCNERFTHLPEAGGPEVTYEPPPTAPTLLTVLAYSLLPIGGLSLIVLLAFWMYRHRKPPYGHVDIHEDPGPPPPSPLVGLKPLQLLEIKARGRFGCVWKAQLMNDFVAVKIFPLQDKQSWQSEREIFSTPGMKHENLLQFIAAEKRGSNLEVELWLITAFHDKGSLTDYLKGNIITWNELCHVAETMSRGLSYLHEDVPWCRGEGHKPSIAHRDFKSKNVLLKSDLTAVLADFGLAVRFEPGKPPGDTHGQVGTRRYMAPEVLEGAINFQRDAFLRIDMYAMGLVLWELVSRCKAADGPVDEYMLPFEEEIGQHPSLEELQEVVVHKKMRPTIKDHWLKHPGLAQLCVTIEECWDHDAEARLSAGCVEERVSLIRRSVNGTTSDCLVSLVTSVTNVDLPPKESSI

CC(C)CC(=O)N1CCc2nc(-c3ccc(Br)cc3)nc(N(C)Cc3ccccc3)c2C1 [THPP-1-NC]
inactive: residual activity [1] 100% | residual activity [2] 100% | residual activity [3] 63% | residual activity [4] 100% | residual activity [5] 80% | residual activity [6] 100% | residual activity [7] 100% | residual activity [8] 100% | residual activity [9] 96% | residual activity [10] 94% | residual activity [11] 100% | residual activity [12] 100% | residual activity [13] 92% | residual activity [14] 100% | residual activity [15] 100% | residual activity [16] 95% | residual activity [17] 100% | residual activity [18] 100% | residual activity [19] 100% | residual activity [20] 72% | residual activity [21] 100% | residual activity [22] 67% | residual activity [23] 100% | residual activity [24] 100% | residual activity [25] 100% | residual activity [26] 100% | residual activity [27] 100% | residual activity [28] 87% | residual activity [29] 76% | residual activity [30] 97% | residual activity [31] 70% | residual activity [32] 100% | residual activity [33] 96% | residual activity [34] 100% | residual activity [35] 100% | residual activity [36] 84% | residual activity [37] 79% | residual activity [38] 100% | residual activity [39] 89% | residual activity [40] 100% | residual activity [41] 87% | residual activity [42] 100% | inhibition [43] -5.76% | inhibition [44] 19.4% | inhibition [45] 18.3%

COCCOc1nc(-c2ccc(Cl)nc2)nc2c1CN(C(=O)c1ncn3ccccc13)CC2 [THPP-1]
inactive: residual activity [1] 93% | residual activity [2] 100% | residual activity [3] 90% | residual activity [4] 100% | residual activity [5] 82% | residual activity [6] 100% | residual activity [7] 100% | residual activity [8] 100% | residual activity [9] 79% | residual activity [10] 83% | residual activity [11] 100% | residual activity [12] 100% | residual activity [13] 99% | residual activity [14] 100% | residual activity [15] 100% | residual activity [16] 100% | residual activity [17] 100% | residual activity [18] 100% | residual activity [19] 100% | residual activity [20] 76% | residual activity [21] 100% | residual activity [22] 65% | residual activity [23] 100% | residual activity [24] 100% | residual activity [25] 100% | residual activity [26] 100% | residual activity [27] 100% | residual activity [28] 95% | residual activity [29] 79% | residual activity [30] 87% | residual activity [31] 85% | residual activity [32] 100% | residual activity [33] 100% | residual activity [34] 100% | residual activity [35] 100% | residual activity [36] 79% | residual activity [37] 66% | residual activity [38] 100% | residual activity [39] 100% | residual activity [40] 100% | residual activity [41] 100% | residual activity [42] 100% | inhibition [43] 6.95% | inhibition [44] -3.46% | inhibition [45] 5.45%
